Legend:
[1] = system: SH-EP neuroblastoma cells; test: Specific apoptosis, FACS analysis of propidium iodide-stained nuclei; assay type: cell-based, human; conditions: 10 μg/ml antibody fragments 1 h before drug; 10 μg/ml betulinic acid, 50 μg/ml VP-16, 10 μg/ml cisplatinum, 0.5 μg/ml doxorubicin, 72 h; FIG. 3B
Procedure: Quantification of DNA fragmentation was performed by FACS analysis of propidium iodide stained nuclei as described in Nicoletti et al, 1991, J. Immunol. Methods. 139: 271-279. Cells were analyzed for DNA content by flow. cytometry (FACScan, Becton Dickinson, Heidelberg, Germany) using CELLQuest software. Early apoptotic changes were identified by staining with biotinylated annexin V (Bender Med Systems, Vienna, Austria) following the manufacturer's instructions. Annexin V binds to exposed phosphatidylserine on the surface of apoptotic cells. Koopman et al, 1994, Blood. 84:1415-1420. Cells were analyzed by flow cytometry (FAC-Scan. Becton Dickinson) using CELLQuest software.
Cells were treated with 10 μg/ml betulinic acid for 72 h. Apoptosis was assessed by FACS analysis of propidium iodide-stained nuclei. Percentage of specific apoptosis was calculated as follows: experimental apoptosis (%) −spontaneous apoptosis in medium (%)/[100%−spontaneous apoptosis in medium (%)]×100%. […]
Cells were incubated for indicated times with doxorubicin, betulinic acid or anti-APO-1 and harvested by trypsinization using 0.05% trypsin and 0.02% EDTA without Ca^2+and Mg^2+(Life Technologies, Inc.). Quantification of DNA fragmentation was performed by FACS analysis of propidium iodide stained nuclei as previously described in Nicoletti et al., J. ImmunoL Methods 139:271-279, using CELLQuest software (Becton Dickinson, Heidelberg, Germany).
(§1) SHEP cells transfected with Bcl-2 or BCl-XL or a neomycin resistance vector only (Neo) were treated with 0.5 μg/ml Doxorubicin or 10 μg/ml Betulinic acid for 48 h (A) or 24 h (B and C). Cells transfected with a neomycin resistance vector only (Neo) were treated in the presence or absence of 50 μm BA or 60 μm zVAD-fmk. Nuclear apoptosis was determined by FACS analysis or propidium iodide-stained DNA content in intact cells (A) or in a CFS incubating isolated nuclei with mitochondria from cells treated with Doxo or betulinic acid (C). ΔΨm was determined by staining cells with the potential-sensitive fluorochrome DiOC6(3) (B).

[2] = system: isolated nuclei with mitochondria from SHEP cells; test: Cell-free system of apoptosis: nuclear fragmentation of isolated nuclei; assay type: biochemical, human; conditions: for nuclear DNA fragmentation, mitochondria plus nuclei plus drug: Neo control mitochondria, 0.1-10 μg/ml betulinic acid or 5 mM atractyloside, 6 h, FIG. 8A, 8B
Procedure: (§2) For determination of nuclear fragmentation, nuclei (10^3/μl) were incubated with mitochondria (1 μg/μl) in buffer D (10 mM HEPES, pH 7.4, 50 mM NaCl, 2 mM MgCl2, 5 mM EGTA, 1 mM DDT, 2 mM ATP, 10 mM phosphocreatine, 50 μg/ml creatine kinase, 10 μM cytochalasin B) for 2 h at 37° C. Nuclei were stained with propidium iodide ([…]) and analyzed by flow cytometry. For determination of caspase activation, cytosolic extracts (2 μg/μl) were incubated with mitochondria (1 μg/μl), cytochrome c (0.1-100 μM) or AIF-containing mitochondrial supernatant (0.5 μg/μl) in buffer D for 2 h at 37° C. Partially purified AIF (cytochrome c-free) was prepared as previously described (0.5 mg/ml, Susin et al., 1997, J. Exp. Med. 186, 5-37; Susin et al., 1996, J. Exp. Med. 184, 1331-41). Proteins were separated by 15% SDS-PAGE and Western blot analysis was performed as described above.
Mitochondria isolated from SHEP cells, transfected with bcl-2 or bcl-XL or a neomycin resistance vector only, were incubated for 6 h with nuclei and 0.1-10 μg/ml betulinic acid (FIG. 8A) or 5 mM atractyloside (FIG. 8B) in the presence or absence of 50 μM bongkrekic acid or 60 μMZ-VAD-fnk. Nuclei incubated with either mitochondria from vector only cells or with betulinic acid were used as control. Nuclear apoptosis was determined by FACS analysis of propidium iodide stained DNA content.
SHEP cells transfected with bcl-2 or bcl-XL or a neomycin resistance vector only were treated with 10 μg/ml betulinic acid or 5 mM atractyloside for 6-24 h (FIG. 8C). Mitochondria were isolated and incubated with nuclei in the presence or absence of 50 μM bongkrekic acid or 60 μMZ-VAD-fmk. Nuclei incubated with either mitochondria front vector only cells or with betulinic acid were used as control. Nuclear apoptosis was determined by FACS analysis of propidium iodide stained DNA content.
Mitochondria isolated from SHEP cells transfected with bcl-2, Bcl-XL or a neomycin resistance vector only were treated with 10 μg/ml betulinic acid or 5 mM atractyloside for 0.5 h in the presence or absence of 50 μM bongkrekic acid or 60 μM zVAD-fmk. Mitochondrial supernatants obtained by high speed centrifugation were incubated with nuclei for 2 h at 37° C. Nuclei incubated with supernatants of untreated mitochondria were used as control.. Nuclear apoptosis was determined by FACS analysis of propidium iodide stained DNA content.
as §2, with “cytometry (Susin et al., 1997 Exp. Cell Res. 236:397-403).” for “cytometry.”, “(10” for “(0.1-100”, “C.” for “C. Partially purified AIF (cytochrome c-free) was prepared as previously described (0.5 mg/ml, Susin et al., 1997, J. Exp. Med. 186, 5-37; Susin et al., 1996, J. Exp. Med. 184, 1331-41).”, “before.” for “above.”
as §1

[3] = system: mitochondria isolated from SHEP cells; test: Mitochondrial membrane potential of isolated mitochondria (DiOC6(3)); assay type: biochemical, human; conditions: mitochondria from wild type or vector-only SHEP cells; 10 μg/ml betulinic acid, 30 min; FIG. 7, 12D
Procedure: For isolation of mitochondria, cells (3×10^5 per sample) were washed twice with ice-cold PBS and resuspended with five volumes of buffer A (50 mM Tris, 1 mM EGTA, 5 mM 2-mercaproethanol, 0.2% BSA, 10 mM KH2PO4, pH 7.6, 0.4 M sucrose) and allowed to swell on ice for 20 min. Cells were homogenized with 30 strokes of a Teflon homogenizer and centrifuged at 10000 g for 10 min at 4° C. The resulting pellets were resuspended in buffer B (10 mM KH2PO4, pH 7.2, […] mannitol, 0.1% BSA). Mitochondria were separated by sucrose gradient (lower layer: 1.6 M sucrose, 10 mM KH2PO4, pH 7.5, 0.1% BSA; upper layer: 1.2 M sucrose, 10 mM KH2PO4, pH 7.5, 0.1% BSA). Interphases containing mitochondria were washed with buffer B at 18000 g for 10 min at 4° C. and the resulting mitochondrial pellets were resuspended in buffer B. For preparation of cytosolic extracts, cells (1×10^8 per sample) were washed twice with ice-cold PBS, resuspended with one volume of buffer A and allowed to swell on ice for 20 min. Cells were homogenized with 30 strokes of a Dounce homogenizer and centrifuged at 15000×g for 15 min ax 4° C. The protein concentration of mitochondria or cytosolic extracts was determined by Bradford method (Bio-Rad). For isolation of nuclei, cells were washed twice in ice-cold PBS, resuspended in 10 volumes of buffer C (10 mM PIPES, pH 7.4, 10 mM KCl, 2 mM MgCl2, 1 mM DDT, 1 mM PMSF, 10 μM cytochalasin B), allowed to swell on ice for 20 min and homogenized using a Teflon homogenizer. Homogenates were layered over 30% sucrose in buffer C and centrifuged at 800 g for 10 min. The resulting nuclear pellets were resuspended in buffer C and washed three times. Nuclei were scored at −80° C. in aliquots of 10^8 nuclei/ml until required. AIF-containing mitochondrial supernatant was prepared as described in Susin et aL, 1997, J. Exp. Med. 186, 5-37 and Susin et al., 1996, J. Exp. Med. 184, 1331-41.
Mitochondria (5×10^5/ml) were treated with 10 μg/ml betulinic acid for 30 min, incubated with 3,3′-dihexyloxacarbocyanide iodide (DiOC6(3), 40 nM, Molecular Probes, Inc., Eugene, Oreg.) for 15 min at 37° C. and analyzed on a flow cytometer (FACS Vantage, Becton Dickinson). As a control, cells were treated with the uncoupling agent carbonyl cyanide m-chlorophenylhydrazone (mCICCP, 200 μM, Sigma).

[4] = system: caspase-3, caspase-8 and PARP in cytosolic extracts of SHEP cells; test: Cell-free system of apoptosis: cleavage of caspases in cytosolic extracts by mitochondria; assay type: biochemical, human
Procedure: as §2, with “above. To confirm equal loading of mitochondrial protein, all Western blots were also developed with an antibody directed against a 60 kDa mitochondrial antigen (data not shown).” for “above.”
SHEP cells transfected with bcl-2 or Bcl-XL or a neomycin resistance vector only were treated with 10 μg/ml betulinic acid for 16 h. Mitochondria were isolated and incubated with cytosolic extracts for 6 h in the presence or absence of 60 μM zVAD-fmk (left panel, cells). Alternatively, mitochondria isolated from untreated cells were incubated with 10 μg/ml betulinic acid or 5 mM atractyloside together with cytosolic extracts for 6 h in the presence or absence of 60 μMZ-VAD-fmk (right panel, mitos, Atra). Cytosolic extracts incubated with mitochondria isolated from untreated cells or with untreated mitochondria were used as control. 40 μg protein per lane isolated front cell lysates were separated by 15% SDS-PAGE. Immunodetection of caspases-3, -8 and PARP protein was performed by mouse anti-caspase-3 mAb, mouse anti-caspase-8 mAb, rabbit anti-PARP polyclonal antibody and ECL.
SHEP cells treated with 10 μg/ml betulinic acid for indicated times. Mitochondria were isolated and incubated with cytosolic extracts for 6 h. Western blot analysis was performed as described above.
Mitochondria isolated from SHEP cells transfected with bcl-2 or Bcl-XL or a neomycrn resistance vector only were treated with 10 μg/ml betulinic acid or 5 mM atractyloside for 0.5 h in the presence or absence of 50 μM bongkrekic acid or 60 μM zVAD-fmk. Mitochondrial supernatants obtained by high speed centrifugation were incubated with cytosolic extracts for 6 h at 37° C. Cytosolic extracts incubated with supernatants of untreated mitochondria were used as control. Western blot analysis was performed as described for FIG. 9A.
as §2, with “cytometry (Susin et al., 1997 Exp. Cell Res. 236:397-403).” for “cytometry.”, “(10” for “(0.1-100”, “C.” for “C. Partially purified AIF (cytochrome c-free) was prepared as previously described (0.5 mg/ml, Susin et al., 1997, J. Exp. Med. 186, 5-37; Susin et al., 1996, J. Exp. Med. 184, 1331-41).”, “before.” for “above.”
SHEP cells transfected with Bcl-2 or Bcl-XL or a neomycin resistance vector only (Neo) were treated (Lanes+) with 0.5 μg/ml Doxo or 10 μg/ml Bet A for 16 h. Mitochondria were isolated and incubated with cytosolic extracts for 6 h. in the presence or absence of 60 μm Z-VAD.fmk. Western blot analysis was performed as described in FIG. 14A.

COc1cc([C@@H]2c3cc4c(cc3[C@@H](O[C@@H]3O[C@@H]5CO[C@@H](C)O[C@H]5[C@H](O)[C@H]3O)[C@H]3COC(=O)[C@H]23)OCO4)cc(OC)c1O [VP-16, etoposide]
effect of CD95 blockage by F(ab′)2 anti-APO-1 on drug-induced apoptosis [1]: markedly reduced | nuclear DNA fragmentation, mitochondria plus nuclei plus drug [2]: No DNA fragmentation was observed | Δψm of isolated mitochondria [3]: did not induce mitochondrial perturbations

C=C1[C@@H]2CC[C@H]3[C@]4(C)C[C@H](O[C@@H]5O[C@H](CO)[C@@H](OS(=O)(=O)O)[C@H](OS(=O)(=O)O)[C@H]5OC(=O)CC(C)C)C[C@@H](C(=O)O)[C@H]4CC[C@]3(C2)[C@H]1O [atractyloside]
DNA fragmentation by supernatants from treated mitochondria ([2]; 10 μg/ml betulinic acid or 5 mM atractyloside 0.5 h, supernatant with nuclei 2 h, FIG. 10B): caspase activation and nuclear fragmentation were observed | nuclear DNA fragmentation, mitochondria plus nuclei plus drug [2]: had the same effect as betulinic acid | caspase cleavage in cytosolic extracts by supernatants from treated mitochondria ([4]; 10 μg/ml betulinic acid or 5 mM atractyloside 0.5 h, extracts 6 h, FIG. 10A): caspase activation and nuclear fragmentation were observed | caspase cleavage in cytosolic extracts by treated isolated mitochondria ([4]; 10 μg/ml betulinic acid or 5 mM atractyloside, 6 h, FIG. 9A): led to activation of caspases

N.N.[Cl][Pt][Cl] [cisplatinum]
effect of CD95 blockage by F(ab′)2 anti-APO-1 on drug-induced apoptosis [1]: markedly reduced | nuclear DNA fragmentation, mitochondria plus nuclei plus drug [2]: No DNA fragmentation was observed | Δψm of isolated mitochondria [3]: did not induce mitochondrial perturbations
